Measurements as given in ChEMBL document CHEMBL5143510, “Structure modification and biological evaluation of indole-chalcone derivatives as anti-tumor agents through dual targeting tubulin and TrxR” (Eur J Med Chem, 2022).
Activity calls are given as the source filed them. The rule behind the calls is not given here.

Key:
Tubulin = assay: Inhibition of tubulin polymerization (unknown origin) assessed as decrease in fluorescence intensity incubated for 90 mins by DAPI staining based microplate reader analysis; assay type: protein-complex assay, Homo sapiens
Tubulin (Homo sapiens) [1] = target: T1, Tubulin (Homo sapiens) (UniProt P68371+Q9H4B7+P0DPH7+P68366+Q13509+Q71U36+P04350+Q3ZCM7+P07437+P68363+Q9BQE3+Q6PEY2+Q13885+Q9BVA1+Q9BUF5); assay: Binding affinity to tubulin (unknown origin) assessed as reduction in peak area in the filtrate at 30 uM incubated for 1 hr by HPLC analysis; assay type: protein-complex assay
MHCC97H [2] = assay: Induction of cell cycle arrest in human MHCC97H cells assessed as increase in accumulation of cells at G2/M phase at 5 to 50 nM measured after 48 hrs by propidium iodide staining based flow cytometry; assay type: functional; details: dose 5-50 nM
A2780 = assay: Antiproliferative activity against human A2780 cells assessed as reduction in cell viability incubated for 48 hrs by MTT assay; assay type: functional, cell-based; details: A2780, 48 h
MHCC97H [3] = assay: Antiproliferative activity against human MHCC97H cells assessed as reduction in cell viability incubated for 48 hrs by MTT assay; assay type: functional, cell-based
MHCC97H [4] = assay: Induction of apoptosis in human MHCC97H cells assessed as decrease in MMP level incubated for 24 hrs by JC-1 staining based fluorescence microscopy; assay type: functional, cell-based; details: dose 5-50 nM, DDE = dose-dependent effect
[5] = Cytotoxicity against human HUVEC cells assessed as reduction in cell viability incubated for 48 hrs by MTT assay; assay type: toxicity, cell-based
[6] = Inhibition of TrxR in human MHCC97H cells using DTNB as substrate preincubated for 4 hrs in presence of NADPH followed by substrate addition by microplate reader analysis; assay type: cell-based
MHCC97H [7] = assay: Induction of apoptosis in human MHCC97H cells assessed as downregulation of Bcl-xl expression at 5 to 50 nM measured after 24 to 48 hrs by Western blot analysis; assay type: functional, cell-based; details: dose 5-50 nM, time 24-48 hrs
NCI/ADR-RES = assay: Antiproliferative activity against adriamycin resistant human MCF7/ADR cells assessed as reduction in cell viability incubated for 48 hrs by MTT assay; assay type: functional, cell-based
[8] = Selectivity ratio, ratio of IC50 for cytotoxicity against human HLF cells to IC50 for antiproliferative activity against human MHCC97H cells; assay type: toxicity, cell-based; details: HLF cells versus MHCC97H cells, read-out: Ratio IC50
[9] = Inhibition of TrxR (unknown origin) using DTNB as substrate incubated for 5 mins in presence of NADPH followed by substrate addition by microplate reader analysis; parameters: species or system Homo sapiens
Tubulin (Homo sapiens) [10] = target: T1, Tubulin (Homo sapiens); assay: Inhibition of colchicine binding to tubulin (unknown origin) at 0.312 uM by competitive binding assay relative to control; assay type: protein-complex assay
MHCC97H [11] = assay: Induction of apoptosis in human MHCC97H cells assessed as upregulation of Bax expression measured after 24 to 48 hrs by Western blot analysis; assay type: functional, cell-based; details: dose 5-50 nM, time 24-48 hrs, DDE = dose-dependent effect
HCT-8/VCR = assay: Downregulation of TrxR in vincristine resistant human HCT-8/VCR cells at 10 to 50 nM incubated for 48 hrs by Western blot analysis; assay type: functional, cell-based; details: dose 10-50 nM
Tubulin (Homo sapiens) [12] = target: T1, Tubulin (Homo sapiens); assay: Induction of microtubule disruption in human MHCC97H cells assessed as occurence of cell shrinkage at 10 nM incubated for 8 hrs followed by compound washout and measured after 24 hrs by immunofluorescence based confocal microscopic analysis
MHCC97H [13] = assay: Induction of morphological changes in human MHCC97H cells assessed as cell shrinkage at 5 to 50 nM incubated for 48 hrs by phase contrast microscopic analysis; assay type: functional, cell-based; details: dose 5-50 nM
Tubulin (Homo sapiens) [14] = target: T1, Tubulin (Homo sapiens); assay: Inhibition of colchicine binding to tubulin (unknown origin) at 2.50 uM by competitive binding assay relative to control; assay type: protein-complex assay; details: dose 2.5 µM
Tubulin (Homo sapiens) [15] = target: T1, Tubulin (Homo sapiens); assay: Induction of microtubule disruption in human MHCC97H cells assessed as occurence of cell shrinkage at 10 nM measured after 8 hrs by immunofluorescence based confocal microscopic analysis
MHCC97H [16] = assay: Induction of apoptosis in human MHCC97H cells assessed as increase in total apoptotic cells incubated for 24 to 48 hrs by Annexin V-FITC/PI staining based flow cytometry method; assay type: functional, cell-based; details: dose 5-50 nM, time 24-48 hrs, DDE = dose-dependent effect
[17] = Toxicity in BALB/c mouse xenografted with human MHCC97H cells assessed as change in body weight at 30 mg/kg, ip administered every other day for 30 days; assay type: organism-based; details: in vivo, 720 h, time 30 day
MHCC97H [18] = assay: Induction of ROS production in human MHCC97H cells assessed as increase in accumulation ROS level at 5 to 50 nM incubated for 4 hrs by DCFH-DA staining based fluorescence microscopy; assay type: functional, cell-based; details: dose 5-50 nM
Homo sapiens [19] = organism: Homo sapiens; assay: Inhibition of TrxR (unknown origin) assessed as alkylation of TrxR by measuring weak band intensity using BIAM as substrate at 10 to 40 uM preincubated for 2 hrs in presence of NADPH followed by substrate addition and measured after 30 mins by Western blot analysis; details: dose 10-40 µM, time 2.5 hrs
Homo sapiens [20] = organism: Homo sapiens; assay: Irreversible inhibition of TrxR (unknown origin) using DTNB as substrate at 5 uM incubated for 2 hrs in presence of NADPH followed by substrate addition ultrafiltration based microplate reader analysis relative to control
MHCC97H [21] = assay: Induction of apoptosis in human MHCC97H cells assessed as upregulation of Bad expression measured after 24 to 48 hrs by Western blot analysis; assay type: functional, cell-based; details: dose 5-50 nM, time 24-48 hrs, DDE = dose-dependent effect
[22] = Selectivity ratio, ratio of IC50 for cytotoxicity against human HUVEC cells to IC50 for antiproliferative activity against human MHCC97H cells; assay type: toxicity, cell-based; details: HUVEC cells versus MHCC97H cells, read-out: Ratio IC50
MHCC97H [23] = assay: Downregulation of TrxR in human MHCC97H cells at 5 to 50 nM incubated for 48 hrs by Western blot analysis; assay type: functional, cell-based; details: dose 5-50 nM
Homo sapiens [24] = organism: Homo sapiens; assay: Irreversible inhibition of TrxR (unknown origin) using DTNB as substrate at 10 uM incubated for 2 hrs in presence of NADPH followed by substrate addition ultrafiltration based microplate reader analysis relative to control
HUVEC = assay: Induction of morphological changes in human HUVEC cells assessed as loss of cell interactions at 50 nM incubated for 48 hrs by phase contrast microscopic analysis; assay type: toxicity, cell-based; details: 0.05 µM
A549 = assay: Antiproliferative activity against human A549 cells assessed as reduction in cell viability incubated for 48 hrs by MTT assay; assay type: functional, cell-based; details: A549, 48 h
MHCC97H [25] = assay: Induction of apoptosis in human MHCC97H cells assessed as chromatin condensation at 5 to 50 nM incubated for 24 hrs by Hoechst 33342 staining based fluorescence microscopy; assay type: functional, cell-based; details: dose 5-50 nM
[26] = Antiproliferative activity against vincristine resistant human HCT-8/VCR cells assessed as reduction in cell viability incubated for 48 hrs by MTT assay; assay type: functional, cell-based
Tubulin (Homo sapiens) [27] = target: T1, Tubulin (Homo sapiens); assay: Inhibition of colchicine binding to tubulin (unknown origin) at 0.625 uM by competitive binding assay relative to control; assay type: protein-complex assay
Homo sapiens [28] = organism: Homo sapiens; assay: Mixed type inhibition of TrxR (unknown origin) using various concentrations of DTNB as substrate at 1.875 to 15 uM preincubated for 15 mins followed by substrate addition by double reciprocal Lineweaver-Burk plot analysis; details: dose 1.875-15 µM

IC50 (Tubulin): 810 nM
Activity (Tubulin (Homo sapiens) [1]): Active
IC50 (A2780): 18 nM
IC50 [6]: 10200 nM
IC50 [9]: 3730 nM
inhibition (Tubulin (Homo sapiens) [10]): 30.7%
Activity (Tubulin (Homo sapiens) [12]): Active
inhibition (Tubulin (Homo sapiens) [14]): 46.7%
Activity (Tubulin (Homo sapiens) [15]): Active
inhibition (Homo sapiens [19]): Active
inhibition (Homo sapiens [20]): 84%
inhibition (Homo sapiens [24]): 91.4%
IC50 (A549): 8 nM
inhibition (Tubulin (Homo sapiens) [27]): 45%
inhibition (Homo sapiens [28]): Active
SMILES: COc1ccc2c(/C=C(\C)C(=O)c3cc(OC)c(OC)c([Se]C)c3)c[nH]c2c1
Activity (MHCC97H [2]): Active
IC50 (MHCC97H [3]): 6 nM
Activity (MHCC97H [4]): Dde
IC50 at 48 h [5]: 56 nM
Activity (MHCC97H [7]): Active
IC50 (NCI/ADR-RES): 18 nM
selectivity ratio [8]: 394
Activity (MHCC97H [11]): Dde
Activity (HCT-8/VCR): Active
Activity (MHCC97H [13]): Active
Activity (MHCC97H [16]): Dde
Activity [17]: Non-Toxic
Activity (MHCC97H [18]): Active
Activity (MHCC97H [21]): Dde
selectivity ratio [22]: 9.33
Activity (MHCC97H [23]): Active
Activity (HUVEC): Toxic
Activity (MHCC97H [25]): Active
IC50 [26]: 45 nM
